Tested on: 276233-004-R-J1-PDC KRAS spheroids with HUVEC/MSC, viability
Assay: Anticancer human tumor 276233-004-R-J1-PDC patient-derived colon adenocarcinoma cell line growth inhibition [KRAS2]
Conditions: for IC50: curve of first compound; for viability, T/C: stronger effect = lower value
How it was run: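 Combination screen of spheroid viability in tumor-cell co-cultures with endothelial (HUVEC) and mesenchymal stem cell stroma. Each agent was tested in half-log dilutions, topping at clinical Cmax or at 10 microM without a known Cmax.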

[1] = second compound 0.1 µM, first compound 0.0316 µM
[2] = second compound 0.1 µM, first compound 0.1 µM
[3] = second compound 0.1 µM, first compound 0.316 µM
[4] = second compound 0.1 µM, first compound 1 µM
[5] = second compound 0.1 µM, first compound 3.16 µM
[6] = second compound 0.1 µM, first compound 10 µM
[7] = second compound 0.316 µM, first compound 0.0316 µM
[8] = second compound 0.316 µM, first compound 0.1 µM
[9] = second compound 0.316 µM, first compound 0.316 µM
[10] = second compound 0.316 µM, first compound 1 µM
[11] = second compound 0.316 µM, first compound 3.16 µM
[12] = second compound 0.316 µM, first compound 10 µM
[13] = second compound 1 µM, first compound 0.0316 µM
[14] = second compound 1 µM, first compound 0.1 µM
[15] = second compound 1 µM, first compound 0.316 µM
[16] = second compound 1 µM, first compound 1 µM
[17] = second compound 1 µM, first compound 3.16 µM
[18] = second compound 1 µM, first compound 10 µM
[19] = second compound 3.16 µM, first compound 0.0316 µM
[20] = second compound 3.16 µM, first compound 0.1 µM
[21] = second compound 3.16 µM, first compound 0.316 µM
[22] = second compound 3.16 µM, first compound 1 µM
[23] = second compound 3.16 µM, first compound 3.16 µM
[24] = second compound 3.16 µM, first compound 10 µM
[25] = second compound 10 µM, first compound 0.0316 µM
[26] = second compound 10 µM, first compound 0.1 µM
[27] = second compound 10 µM, first compound 0.316 µM
[28] = second compound 10 µM, first compound 1 µM
[29] = second compound 10 µM, first compound 3.16 µM
[30] = second compound 10 µM, first compound 10 µM
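Further: cells exposed to agents for seven days before viability read.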
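Wherever viability, T/C is given: 100% = DMSO vehicle control wells and lower values mean fewer viable cells.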

SMILES	IC50 (second compound 0.1 µM)	IC50 (second compound 0.316 µM)	IC50 (second compound 1 µM)	IC50 (second compound 3.16 µM)	IC50 (second compound 10 µM)	viability, T/C [1]	viability, T/C [2]	viability, T/C [3]	viability, T/C [4]	viability, T/C [5]	viability, T/C [6]	viability, T/C [7]	viability, T/C [8]	viability, T/C [9]	viability, T/C [10]	viability, T/C [11]	viability, T/C [12]	viability, T/C [13]	viability, T/C [14]	viability, T/C [15]	other results
COC(=O)c1ccc2c(C(=Nc3ccc(N(C)C(=O)CN4CCN(C)CC4)cc3)c3ccccc3)c(O)[nH]c2c1 + CNCc1ccccc1-c1csc(C(C)Nc2nc(C)nc3cc(OC)c(OC)cc23)c1	> 10000 nM	> 10000 nM	1140 nM	< 31.6 nM	< 31.6 nM	95.9%	80.5%	87.7%	70.1%	87.7%	70.1%	95.5%	91.7%	71.4%	74.5%	70.4%	74.5%	59.4%	58.5%	56.5%	viability, T/C [16]: 54.6%; viability, T/C [17]: 12.1%; viability, T/C [18]: 14.6%; viability, T/C [19]: 2.33%; viability, T/C [20]: 4.5%; viability, T/C [21]: 7.73%; viability, T/C [22]: 3.3%; viability, T/C [23]: 9.99%; viability, T/C [24]: 5.4%; viability, T/C [25]: 3.64%; viability, T/C [26]: 3.36%; viability, T/C [27]: 4.73%; viability, T/C [28]: 6.01%; viability, T/C [29]: 1.8%; viability, T/C [30]: 0.53%
CC(C)NCC(C(=O)N1CCN(c2ncnc3c2C(C)CC3O)CC1)c1ccc(Cl)cc1 (stereo not given) + COc1cc2nc(C)nc(NC(C)c3cc(N)cc(C(F)(F)F)c3)c2cc1OC1CCOC1	1780 nM	1110 nM	1240 nM	700 nM	< 31.6 nM	75.5%	79.9%	73.6%	56.6%	35.8%	51.2%	89.3%	78.6%	62.7%	57.8%	32.6%	38.8%	67.4%	76.3%	70.3%	viability, T/C [16]: 55.4%; viability, T/C [17]: 26.2%; viability, T/C [18]: 27.4%; viability, T/C [19]: 80.7%; viability, T/C [20]: 75.6%; viability, T/C [21]: 78.2%; viability, T/C [22]: 37.3%; viability, T/C [23]: 29.9%; viability, T/C [24]: 38.8%; viability, T/C [25]: 35.6%; viability, T/C [26]: 16.1%; viability, T/C [27]: 13.9%; viability, T/C [28]: 7.24%; viability, T/C [29]: 4.57%; viability, T/C [30]: 6.8%
Cn1nccc1Nc1nccc(-c2cc3c(s2)C(C)(C)N(CCN2CCOCC2)C3=O)n1 + C=CC(=O)N1CCN(c2nc(=O)n(-c3c(C)ccnc3C(C)C)c3nc(-c4c(O)cccc4F)c(F)cc23)C(C)C1	> 10000 nM	> 10000 nM	> 10000 nM	> 10000 nM	> 10000 nM	106%	100%	83.1%	71.6%	69.9%	60.4%	114%	112%	101%	99.3%	66.2%	66.4%	132%	108%	83.1%	viability, T/C [16]: 93.1%; viability, T/C [17]: 67.6%; viability, T/C [18]: 69.2%; viability, T/C [19]: 97.1%; viability, T/C [20]: 122%; viability, T/C [21]: 93.1%; viability, T/C [22]: 98.5%; viability, T/C [23]: 72.2%; viability, T/C [24]: 86.5%; viability, T/C [25]: 89.5%; viability, T/C [26]: 85.7%; viability, T/C [27]: 85.2%; viability, T/C [28]: 72.6%; viability, T/C [29]: 82.2%; viability, T/C [30]: 105%

Reference: PubChem BioAssay AID1963873 (Molecular Pharmacology Branch, DTP, NCI, 2024)
